In general, EC50 refers to the midpoint of the concentration-response curve.

The values below come from US20240116990A1, “Compositions and Methods of Treatment Using CRRL 191” (Mayo Foundation for Medical Education and Research, priority 2022, published 2024).

Bridge positions count the residues as written; N and C are the ends.

Data set [1] has as its target recombinant human neprilysin (NEP) (Homo sapiens, UniProt P08473). Description: In vitro neprilysin degradation assay (residual cGMP generation in HEK/GCA cells). The conditions noted are these: for original bioactivity retained: 37° C. The protocol: Briefly, 5 μl of 2×10^−5 M peptide is incubated with 5 μl (10 ng/μl) recombinant NEP in 90 μl Tris/0.1% BSA buffer (50 mM Tris-HCl, pH 7.5, 150 mM NaCl, 5 mM MgCl2, 0.1% BSA) at 37° C. for various lengths of time ranging from 15 min to 24 hours. Peptides for the 0-min timepoint are incubated without NEP (buffer only). After incubation for the required length of time (0-min to 24-hour), 100 μl of 0.5 N perchloric acid is added to the reaction solution to inactivate NEP and stop degradation, and 20 μl of 2.5 N NaOH is added to neutralize the solution. The neutralized reaction aliquot is added to HEK/GCA cells and the residual capability of the undegraded peptide (diluted to a final concentration 5.5×10^−8 M) to produce cGMP is measured using the same commercial cGMP ELISA kit (Enzo Life Sciences, Farmingdale, NY) as described in Example 2, following the instructions of the manufacturer.

The subject of data set [2] is Human cardiomyocytes (HCM). Description: Human cardiomyocyte real-time apoptosis analysis (staurosporine-induced, Caspase-3/7 imaging). It counts as cell-based. To be noted: 0.05 μM staurosporine, 90 hours, FIG. 6. The procedure:
HCM cells are seeded in 96-well plate at approximately 80% confluency. Cells are treated with various concentrations of staurosporine (SP) to induce apoptosis. Based on the dose response curve, 0.05 μM of SP is selected to induce apoptosis in HCM.
Plates are then transferred to a time-lapsed, live imaging system IncuCyte S3 (Essen BioScience, Ann Arbor, MI) for apoptosis monitoring every 2 hours for a total of 90 hours. All treatment groups are performed in quintuplicates and repeated twice. Images are collected using the IncuCyte S3 Live-Cell Analysis System Software (Essen Bioscience, Ann Arbor, MI), and the data are analyzed for the Green Object Area of apoptotic bodies per well.

A further data set has as its target T1, human GC-A (Homo sapiens, UniProt P16066).
T1 construct: host or cells: HEK293
T1 sequence (P16066 33-1061): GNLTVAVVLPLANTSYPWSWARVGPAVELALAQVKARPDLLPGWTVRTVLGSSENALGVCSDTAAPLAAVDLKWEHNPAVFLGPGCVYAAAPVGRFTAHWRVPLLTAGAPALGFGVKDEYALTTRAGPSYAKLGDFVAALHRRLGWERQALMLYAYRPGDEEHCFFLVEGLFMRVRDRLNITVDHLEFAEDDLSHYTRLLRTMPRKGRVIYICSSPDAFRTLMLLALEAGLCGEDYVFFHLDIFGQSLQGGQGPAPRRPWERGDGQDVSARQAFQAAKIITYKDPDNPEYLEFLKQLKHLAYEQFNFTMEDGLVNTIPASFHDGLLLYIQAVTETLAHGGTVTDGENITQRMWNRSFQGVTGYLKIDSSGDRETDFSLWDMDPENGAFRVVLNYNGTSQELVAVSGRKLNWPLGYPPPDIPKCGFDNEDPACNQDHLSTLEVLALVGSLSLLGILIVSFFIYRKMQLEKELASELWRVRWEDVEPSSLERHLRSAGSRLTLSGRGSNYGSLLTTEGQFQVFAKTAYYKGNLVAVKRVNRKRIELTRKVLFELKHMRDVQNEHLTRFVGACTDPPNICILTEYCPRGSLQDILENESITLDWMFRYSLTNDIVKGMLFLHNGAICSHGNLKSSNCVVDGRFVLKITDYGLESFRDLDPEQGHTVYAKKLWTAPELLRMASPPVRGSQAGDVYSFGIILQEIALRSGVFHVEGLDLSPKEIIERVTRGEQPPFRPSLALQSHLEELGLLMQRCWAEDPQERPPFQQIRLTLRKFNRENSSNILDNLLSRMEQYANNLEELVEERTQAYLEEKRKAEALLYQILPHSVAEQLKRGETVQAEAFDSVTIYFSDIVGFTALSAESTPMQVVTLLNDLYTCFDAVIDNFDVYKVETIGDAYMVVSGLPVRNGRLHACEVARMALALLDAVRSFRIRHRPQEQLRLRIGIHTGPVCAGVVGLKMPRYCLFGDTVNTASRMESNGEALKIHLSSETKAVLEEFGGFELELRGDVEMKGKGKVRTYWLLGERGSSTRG
The data set can be described thus: cGMP production in HEK293 cells overexpressing GC-A, 10 min stimulation. In kind it is cell-based. To be noted: for Mean (intracellular cGMP): 10 min, HEK293 GC-A cells. Further details: Mean (intracellular cGMP): unit not given here. The protocol:
HEK293 cells stably transfected with human GC-A (cDNA clones from Origene, Rockville, MD) using Lipofectamine (Invitrogen, Grand Island, NY), are developed. Receptor overexpression is verified with immunofluorescence and western blotting. GC-A-transfected HEK293 (HEK/GCA) cells are maintained in Dulbecco's modified Eagle's medium (DMEM) supplemented with 10% fetal bovine serum (FBS), 100 U/ml penicillin, 100 U/ml streptomycin and 250 μg/ml G418.
Two in vitro cGMP assays are performed. Briefly, HEK/GCA cells are seeded in 48-well plates and cultured overnight to 80-90% confluency. The treatment buffer used in all experiments comprises Hank's Balanced Salt Solution (HBSS), 0.1% bovine serum albumin (BSA), 2 mM HEPES, and 0.5 mM 3-isobutyl-1-methylxanthine (IBMX, a non-specific phosphodiesterase inhibitor) (Sigma, St. Louis, MO).
After treatment, all cells are washed with phosphate buffered solution (PBS) once and lysed with 0.1M HCl.

For data set [3], the system named is Human cardiomyocytes (HCM). Description: Human cardiomyocyte (HCM) cGMP analysis. In kind it is cell-based. The protocol:
Human cardiomyocytes (HCM) are purchased from ScienCell (Catalog #6200) and maintained in Cardiac Myocyte Medium (Cat #6101, ScienCell) containing 10% FBS. An in vitro cGMP assay is performed. Briefly, HCM cells are seeded in 6-well plates and cultured overnight to 80-90% confluency. The treatment buffer used in all experiments comprises Hank's Balanced Salt Solution (HBSS), 0.1% BSA, 2 mM HEPES, and 0.5 mM 3-isobutyl-1-methylxanthine (IBMX, a non-specific phosphodiesterase inhibitor) (Sigma, St. Louis, MO). […] For the negative control, HCM are incubated in treatment buffer (vehicle) only. After treatment for 10 minutes, all cells are washed with phosphate buffered solution (PBS) once, lysed with 0.1 M HCl, and sonicated for 10 min.

recombinant human neprilysin (NEP), sequence (P08473 whole entry): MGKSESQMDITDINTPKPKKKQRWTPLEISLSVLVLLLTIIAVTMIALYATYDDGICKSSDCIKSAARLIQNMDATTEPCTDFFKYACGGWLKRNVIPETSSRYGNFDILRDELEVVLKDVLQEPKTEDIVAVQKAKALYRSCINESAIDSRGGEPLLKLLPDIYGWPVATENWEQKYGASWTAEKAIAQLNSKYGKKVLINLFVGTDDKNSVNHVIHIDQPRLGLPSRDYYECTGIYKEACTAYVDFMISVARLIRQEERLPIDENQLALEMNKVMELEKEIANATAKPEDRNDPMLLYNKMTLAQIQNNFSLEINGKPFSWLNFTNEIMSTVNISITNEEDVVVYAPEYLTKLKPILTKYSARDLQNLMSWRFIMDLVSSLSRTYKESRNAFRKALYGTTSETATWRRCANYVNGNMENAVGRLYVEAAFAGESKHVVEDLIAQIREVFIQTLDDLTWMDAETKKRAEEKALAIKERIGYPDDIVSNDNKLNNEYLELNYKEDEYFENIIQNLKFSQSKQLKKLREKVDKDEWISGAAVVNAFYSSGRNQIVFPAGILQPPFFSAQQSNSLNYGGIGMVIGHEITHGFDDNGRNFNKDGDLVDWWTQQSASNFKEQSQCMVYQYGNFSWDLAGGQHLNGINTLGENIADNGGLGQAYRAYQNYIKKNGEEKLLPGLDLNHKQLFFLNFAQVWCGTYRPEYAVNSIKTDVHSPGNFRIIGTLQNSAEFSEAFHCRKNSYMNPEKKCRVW

Regarding “H-RALLTAPRSLRRSSCFGHKIDRINHVSNLGCNSFRYRITAREDKQGWA-OH (disulfide 15-31) [CRRL 191]”, the “resistance to degradation by neprilysin compared to ANP” value in data set [1] (FIG. 3) is on record as “highly resistant”. Besides, the original bioactivity retained entry is on record as “about 90%” in data set [1] (after 30 minutes of neprilysin degradation) and 84% in data set [1] (after 6 hours of neprilysin degradation). In addition, the “cardiomyocyte apoptosis induced by SP” value is “greatest effect on reducing cardiomyocyte apoptosis” in data set [2] (10^−6 M), “reduced cardiomyocyte apoptosis” in data set [2] (10^−8 M) and “reduced cardiomyocyte apoptosis” in data set [2] (10^−10 M). The EC50 at human GC-A was determined as 0.48 nM. The “Mean (intracellular cGMP)” value on human GC-A (10^−6 M peptide) is 135.48; at human GC-A (10^−7 M peptide), 140.84; at human GC-A (10^−8 M peptide), 152.04; on human GC-A (10^−9 M peptide) it was 89.94; on human GC-A (10^−10 M peptide), 35.57; at human GC-A (10^−12 M peptide) it was 2.57. For the same substance, the “EC50 potency compared to ANP” value on human GC-A (10 minutes of stimulation) is listed as “greater potency”. For the same substance, in data set [3] (10^−9 M to 10^−6 M, FIG. 5), the “cGMP production compared to MANP or CRRL 101” value is “great levels of cGMP production than MANP or CRRL 101”. In data set [3] (10^−10 M to 10^−6 M, 10 min, FIG. 4), the “cGMP production compared to ANP” value was “greater cGMP production than ANP”.
